What all share (type): cell-based
In data set [1] the test system is Hep-2 cell (human laryngocarcinoma cell). Put plainly: Toxicity of samples with respect to Hep-2 cell (CPE, Reed-Muench). Particulars: 72 h. Here is the method: Anti-RSV in vitro of the above partial compounds is tested. With Hep-2 cell (human laryngocarcinoma cell) as viral host, Hep-2 cytopathic extent caused by inhibiting RSV is measured and observed for 72 h. Half inhibition concentration (IC50) of samples with respect to respiratory syncytial virus (RSV), its maximum of non toxicity concentration (TC0) and half toxicity concentration (TC50) of samples with respect to Hep-2 cell are respectively calculated by methods of Reed-Muench. Sample treatment: before using, sample is prepared for a suitable concentration by being dissolved in DMSO, and is diluted to 3 times with a culture medium to form eight dilutions. Test method: After Hep-2 cell is cultured in 96-well plate for 24 h, it is infected respiratory syncytial virus (RSV) (200TCID50 infective dose) and absorbed for 4 h to get a viral liquid. Then the viral liquid is discarded. The sample is added thereto according to the above eight dilutions, in the meantime cell control wells of positive drugs, normal cell control wells and viral control wells are set. The cytopathic extent (CPE) is observed for 72 h. Half inhibition concentration (IC50) of samples with respect to respiratory syncytial virus (RSV), its maximum of no toxicity concentration (TC0) and half toxicity concentration (TC50) of samples with respect to Hep-2 cells are respectively calculated by method of Reed-Muench.

Data set [2] has as its system respiratory syncytial virus (RSV), Long strain. The experiment in a line: Inhibitory effect on anti-RSV in vitro (CPE in Hep-2 cells, 72 h, Reed-Muench). Particulars: human respiratory syncytial virus, read-out: IC50 (half inhibition concentration, RSV). The method, then:
Anti-RSV in vitro of the above partial compounds is tested. With Hep-2 cell (human laryngocarcinoma cell) as viral host, Hep-2 cytopathic extent caused by inhibiting RSV is measured and observed for 72 h. Half inhibition concentration (IC50) of samples with respect to respiratory syncytial virus (RSV), its maximum of non toxicity concentration (TC0) and half toxicity concentration (TC50) of samples with respect to Hep-2 cell are respectively calculated by methods of Reed-Muench.
Virus strains: RSV, Long strain
Sample treatment: before using, sample is prepared for a suitable concentration by being dissolved in DMSO, and is diluted to 3 times with a culture medium to form eight dilutions.
Positive control drug: ribavirin (RBV)
Test method: After Hep-2 cell is cultured in 96-well plate for 24 h, it is infected respiratory syncytial virus (RSV) (200TCID50 infective dose) and absorbed for 4 h to get a viral liquid. Then the viral liquid is discarded. The sample is added thereto according to the above eight dilutions, in the meantime cell control wells of positive drugs, normal cell control wells and viral control wells are set. The cytopathic extent (CPE) is observed for 72 h. Half inhibition concentration (IC50) of samples with respect to respiratory syncytial virus (RSV), its maximum of no toxicity concentration (TC0) and half toxicity concentration (TC50) of samples with respect to Hep-2 cells are respectively calculated by method of Reed-Muench.

For data set [3], the system named is human hepatoma carcinoma cells (Hep G2) 2.2.15 cell line. Put plainly: Cell toxicity in 2.2.15 cells (cytopathic cells observed for 8 days, Reed-Muench). Here is the method:
(§1) Anti-hepatitis (HBV) DNA virus in vitro of the above partial compounds is tested. human hepatoma carcinoma cells (Hep G2) in the 2.2.15 cell line are transfected by DNA cloning of hepatitis B virus (HBV), the inhibitory effect on cell toxicity and HBV DNA secretion are studied. Half inhibition concentration (IC50) and half toxicity concentration (TC50) of samples are measured, the inhibition ratio to HBV DNA in the 2.2.15 cell culture are obtained respectively.
Virus strains: human hepatoma carcinoma cells (Hep G2) in 2.2.15 cell line are transfected by DNA cloning of hepatitis B virus (HBV).
Sample treatment: the sample is prepared for a suitable concentration by being dissolved in DMSO and preserved at 4° C. before using. When using, the required concentration is prepared by using a 2.2.15 cell culture medium.
Test method: The sample is prepared for a 20 mg/ml mother liquor, and is further prepared for a required concentration by using a 2.2.15 cell culture medium. Then the above solution is diluted to 5 times from 200 μg/ml with the culture medium to form eight kinds of concentrations. The above solution is added to a 96-well cell plate, each of concentration is placed in 3 wells, and the medical solution with the same concentration is changed every 4 days. Cell control group without drug is set to observe cytopathic cell as a target, the cytopathic cell is observed under a microscope for 8 days, wherein full destruction is about 4; 75% of cytopathic cells are about 3; 50% of cytopathic cells are about 2; 25% of cytopathic cells are about 1; no cytopathic cells is about 0. Mean cytopathic extent and inhibition ratio of medical solutions for each concentration are calculated. Half toxicity concentration (TC50) and its maximum of non toxicity concentration (TC0) are respectively calculated by the method of Reed-Muench. According to the method of molecular cloning experimental technology, firstly the HBV DNA is extracted from 2.2.15 cells of medical solution of each concentration group and cell control groups, and then a dot blot hybridization and autoradiography of each sample are measured. After measuring IOD value or OD value of every hybridization dot, the inhibition ratio is calculated.
Background: Damage to the host cells serves as the signal in cytopathic effect assays.

Another data set has as its system T-lymphocyte MT-4. The experiment in a line: Cell toxicity in MT-4 cells by method of CPE (96 h). The method, then:
(§2) Anti-HIV-1 IIIB/H9 in vitro of the above partial compounds is tested. Half inhibition concentration (IC50) of samples and half toxicity concentration (TC50) of samples are respectively measured after culturing MT-4 cells, wherein the cell toxicity is measured by the method of CPE, and the inhibitory effects on HIV-1 IIIB of compounds are measured by method of measuring P24 antigen of cell culture supernatant.
Test method: The toxicity of drug in cell (TC50 and TC0) is measured by method of CPE. 100 μl cell is inoculated in 96-well plate at a density of 2×10^5 cells/ml. In the meantime, the medical solution 100 μl of 8 kinds of concentration of samples or positive drug zidovudine which are respectively diluted to 3 times are respectively added thereto, each of concentration is placed in 3 wells which are set to a cell control group. The above plates is cultured at the incubator of 37° C., 5% CO2 and a saturated humidity. CPE Cells are observed at the fourth day (96 h) after adding drug, the cytopathic situation is recorded and TC50 and TC0 are calculated.

The next data set concerns HIV-1 IIIB virus strain. The experiment in a line: Inhibitory effect on HIV-1 IIIB in MT-4 cells (P24 antigen ELISA of cell culture supernatant). Particulars: Human immunodeficiency virus 1, IIIB, MT4, 96 h, read-out: IC50 (half inhibition concentration, HIV-1 IIIB). The method, then: as §2
Virus strains: HIV-1 IIIB virus strain
Sample treatment: before using, the sample is prepared for a suitable concentration by being dissolved in DMSO and then is further prepared for a cell culture medium.
Positive control drug: Zidovudine (AZT)
HIV-1 P24 antigen detection kit: Use products of BioMerieux Corporation in Holland.
HIV-1 P24 antigen is measured by the method of ELISA. After counting the MT-4 cells, the cells are infected in the virus dose of 100TCID50 and absorbed for 1.5 h in the incubator of 37° C., 5% CO2 and a saturated humidity. The cells are inoculated in a 96-well plate at the density of 2×10^5 cells/ml. After adding a diluted drug 100 ul/well, the culture of the plate is cultured at the incubator of 37° C., 5% CO2 and a saturated humidity for 4 days (96 h). Cell supernatant is taken out and diluted in the ratio of 1:3000. HIV-1 P24 titer is measured according to the test steps provided by HIV-1 P24 antigen kit. Compared adding drug groups with viral control groups, half inhibition concentration (IC50) of samples and half toxicity concentration (TC50) of samples are respectively calculated
Background: ELISA stands for enzyme-linked immunosorbent assay.

Data set [4] concerns hepatitis B virus (HBV) DNA. The experiment in a line: Inhibition of HBV DNA in 2.2.15 cell culture (dot blot hybridization, autoradiography). Particulars: concentration not given. Here is the method:
as §1
Virus strains: human hepatoma carcinoma cells (Hep G2) in 2.2.15 cell line are transfected by DNA cloning of hepatitis B virus (HBV). […]
Test method: The sample is prepared for a 20 mg/ml mother liquor, and is further prepared for a required concentration by using a 2.2.15 cell culture medium. […] Mean cytopathic extent and inhibition ratio of medical solutions for each concentration are calculated. Half toxicity concentration (TC50) and its maximum of non toxicity concentration (TC0) are respectively calculated by the method of Reed-Muench. According to the method of molecular cloning experimental technology, firstly the HBV DNA is extracted from 2.2.15 cells of medical solution of each concentration group and cell control groups, and then a dot blot hybridization and autoradiography of each sample are measured. After measuring IOD value or OD value of every hybridization dot, the inhibition ratio is calculated.

Where [5] appears, read: RSV Long strain in Hep-2 cell, CPE, 72 h.

Consider nine molecules from patent US8722725B2, “Caffeoylquinic acid derivatives containing nitrogen, and preparation method, pharmaceutical composition and usage thereof” (Zhejiang Medicine Co., Ltd. Xinchang Pharmaceutical Factory, priority 2007, dated 2014).

≈ marks a conversion by molar mass, not a printed value. Read-outs that look alike come from different tables or passages of the source.

`O=C(/C=C/c1ccc(O)c(O)c1)O[C@@H]1C[C@](O)(C(=O)NC2CC2)C[C@@H](OC(=O)/C=C/c2ccc(O)c(O)c2)[C@H]1O` [1-1]: in data set [1], the “TC0 (maximum of non toxicity concentration)” value is 37.04 µg/mL and the “TC50 (half toxicity concentration)” value was 111.11 µg/mL (≈ 200 µM). Also, the IC50 in data set [2] (setting [5]) was above 111 µg/mL. Further, in data set [3], the “Cell toxicity TC0” value came out at 1.6 µg/mL and the “Cell toxicity TC50” value amounted to 27.59 µg/mL.
Turning to `O=C(/C=C/c1ccc(O)c(O)c1)O[C@@H]1C[C@](OC(=O)/C=C/c2ccc(O)c(O)c2)(C(=O)N2CCCC2)C[C@@H](O)[C@H]1O` [2-3], in data set [1], the “TC0 (maximum of non toxicity concentration)” value stood at 4.12 µg/mL and the “TC50 (half toxicity concentration)” value stood at 12.35 µg/mL (≈ 21.7 µM). In addition, the IC50 in data set [2] (setting [5]) was above 12.3 µg/mL. Moreover, in data set [3], the “Cell toxicity TC0” value was determined as 0.32 µg/mL and the “Cell toxicity TC50” value was determined as 3.58 µg/mL.
As for `CNC(=O)[C@]1(O)C[C@@H](OC(=O)/C=C/c2ccc(O)c(O)c2)[C@@H](O)[C@H](OC(=O)/C=C/c2ccc(O)c(O)c2)C1` [3-1], in the data set with T-lymphocyte MT-4 (human), the “TC50 (half toxicity concentration)” value turned out to be 32.08 µg/mL (≈ 60.6 µM). In addition, in data set [1], the “TC0 (maximum of non toxicity concentration)” value amounted to 37.04 µg/mL and the “TC50 (half toxicity concentration)” value came to 64.15 µg/mL (≈ 121 µM). The IC50 in data set [2] (setting [5]) was 16.2 µg/mL (≈ 30.7 µM). In data set [3], the “Cell toxicity TC0” value was determined as 1.6 µg/mL and the “Cell toxicity TC50” value was determined as 27.59 µg/mL. In addition, in the data set on HIV-1 IIIB virus strain, the IC50 stood at 1.83 µg/mL (≈ 3.46 µM).
Take `CNC(=O)[C@]1(OC(=O)/C=C/c2ccc(O)c(O)c2)C[C@@H](O)[C@@H](O)[C@H](OC(=O)/C=C/c2ccc(O)c(O)c2)C1` [3-3]: in data set [1], the “TC0 (maximum of non toxicity concentration)” value worked out at 37.04 µg/mL and the “TC50 (half toxicity concentration)” value was determined as 111.11 µg/mL (≈ 210 µM). For the same molecule, the IC50 in data set [2] (setting [5]) was above 111 µg/mL. Further, in data set [3], the “Cell toxicity TC0” value worked out at 0.32 µg/mL and the “Cell toxicity TC50” value came to 3.58 µg/mL.
As for `CNC(=O)[C@]1(O)C[C@@H](O)[C@@H](O)[C@H](OC(=O)/C=C/c2ccc(O)c(O)c2)C1` [3-5], in data set [1], the “TC0 (maximum of non toxicity concentration)” value turned out to be 12.35 µg/mL and the “TC50 (half toxicity concentration)” value was found to be 37.04 µg/mL (≈ 101 µM). The IC50 in data set [2] (setting [5]) stood at 7.13 µg/mL (≈ 19.4 µM). Also, in data set [3], the “Cell toxicity TC0” value turned out to be 8 µg/mL and the “Cell toxicity TC50” value came out at 89.44 µg/mL.
On to `CNC(=O)[C@]1(O)C[C@@H](OC(=O)/C=C/c2ccc(O)c(O)c2)[C@@H](OC(=O)/C=C/c2ccc(O)c(O)c2)[C@H](OC(=O)/C=C/c2ccc(O)c(O)c2)C1` [3-7], for which the “TC50 (half toxicity concentration)” value in the data set with T-lymphocyte MT-4 (human) was found to be 32.08 µg/mL (≈ 46.4 µM); in data set [1] it was 64.15 µg/mL (≈ 92.8 µM). In data set [1], the “TC0 (maximum of non toxicity concentration)” value came to 37.04 µg/mL. In addition, the IC50 in data set [2] (setting [5]) was above 64.2 µg/mL; with HIV-1 IIIB virus strain, 1.02 µg/mL (≈ 1.47 µM). Besides, in data set [4], the “HBV DNA Inhibition ratio (%)” value amounted to 41.71%. Also, the “Cell toxicity TC0” value in data set [3] is above 200 µg/mL. Moreover, the “Cell toxicity TC50” value in data set [3] is above 200 µg/mL.
For the molecule `Nc1ccn([C@@H]2CS[C@H](CO)O2)c(=O)n1` [3TC, lamivudine, reference compound], the “HBV DNA Inhibition ratio (%)” value in data set [4] is on record as 40.8~49.39%.
For the molecule `Cc1cn([C@H]2C[C@H](N=[N+]=[N-])[C@@H](CO)O2)c(=O)[nH]c1=O` [AZT, zidovudine, reference compound], the “TC50 (half toxicity concentration)” value in the data set on T-lymphocyte MT-4 (MT-4 cells, CPE) turned out to be 20.00 µg/mL (≈ 74.8 µM). Besides, the IC50 with HIV-1 IIIB virus strain turned out to be 0.0042 µg/mL (≈ 0.0157 µM).
Regarding `NC(=O)c1ncn([C@@H]2O[C@H](CO)[C@@H](O)[C@H]2O)n1` [RBV, Ribavirin, reference compound], the IC50 in data set [2] (HEp-2, 72 h) is 1.37 µg/mL (≈ 5.61 µM).
